Source: patent EP3569229A1, “PROPHYLACTIC AND/OR THERAPEUTIC AGENT FOR DISEASES ASSOCIATED WITH AMPA RECEPTORS” (Public University Corporation Yokohama City University, priority 2017, dated 2018)

Key:
AMPA receptors [1] = test: AMPA receptor binding test (in vitro autoradiography method); design: species or system SD rats; conditions: acute rat brain section including the striatum; [^11C] K-2; Fig. 1
Description: As rats, adult male SD rats (Charles River, Japan) which were […] were used. An acute brain section which included the striatum and whose thickness was 200 µm was produced, was placed on a cell strainer and was left in an oxygenated ACSF (artificial cerebrospinal fluid) for 60 minutes. 12 ml of 100 µM PEPA (ACSF containing 1% DMSO) was adjusted, and [^11C] K-2 was added thereto so as to achieve 20 nM, and the resultant solution was left for 60 minutes. After the reaction, the resultant solution was washed with the ACSF for 10 seconds three times, and was finally washed with distilled water for 10 seconds. The cell strainer was cut out so as to be slightly larger than the brain section after the reaction, and was exposed to an imaging plate for 2 hours. The imaging plate after the exposure was imaged with Typhoon (GE Healthcare Japan) (resolution of 25 pixels).

AMPA receptors [2] = test: AMPA receptor binding test (electrophysiological verification, whole-cell recording of AMPA current in acute hippocampal section); type: cell-based, SD rats; conditions: pyramidal cell in CA1, compound administered for 15 minutes, Fig. 2
Description: Male SD rats which were 7 to 8 weeks old were used. The rat was decapitated under anesthesia with isoflurane, and an acute brain section which included the hippocampus and whose thickness was 400 µm was produced with a vibratome (VT1000; Leica Camera AG). The section was left in the ACSF at room temperature for 60 minutes, and then an AMPA current was measured by a whole-cell recording method. Under conditions in which the ACSF was refluxed at a rate of 3 ml/minute, only the AMPA current was isolated by administration of picrotoxin and APV. An exciting electrode was placed on a Schaffer fiber, and a recording electrode was placed on a pyramidal cell in CA1. The whole-cell recording was performed with a potential fixed to -80 mV, and a stimulus of 100 microseconds was applied every 30 seconds. The AMPA current in a ground state was recorded for 5 minutes, then K-2 or K-4 was administered for 15 minutes and thereafter the AMPA current was recorded for 30 minutes. When the section was left and when the section was refluxed, the ACSF was saturated with 95% O2/5% CO2 and was then used, and the composition of the ACSF was as follows; 119 mM NaCl, 2.5 mM KCl, 2.5 mM CaCl2, 1.5 mM MgSO4, 26 mM NaHCO3 and 1 mM NaH2PO4. […]

WKY rat = test: Forced swimming test using rat; type: in vivo; conditions: acute administration, intravenous, 30 minutes before test; 1.0 mg/kg; Figs. 8, 9 and 10
Description: In a forced swimming test, AMPA receptor-binding compounds K-2 and K-4 were dissolved in 100% DMSO (Nacalai Tesque, Inc. Japan) so as to have a concentration of 2.1 mM, were diluted with saline immediately before being administered (15% DMSO, 320 µM) and were intravenously administered to the rat with an administered amount of 5 µl/weight (g) such that the administered amount fell within a range of 1 mg/kg to 1.5 mg/kg.
In all animal experiments, the deliberation and the approval of the animal experiment committee in Yokohama City University were received (approval number: F-A-15-051). As rats, adult male Wistar rats which were 6 to 10 weeks old and Wistar Kyoto rats (WKY rats) which were depression model rats (Charles River, Japan) were used. In order to acquire a route for the repeated administration of K-2, a jugular vein cannula indwelling surgery was performed a week before the experiment. The rat was made to fall sleep with isoflurane (DS Pharma Animal Health, Japan), and thereafter while anesthesia was maintained at an isoflurane concentration of 1.5% (air 2 L/minute), the jugular vein cannula indwelling surgery was performed. The skin of the neck was incised about 3 cm such that subcutaneous fat was opened, and thus the jugular vein was exposed. A needle to which a cannula tube was fitted was made to penetrate the jugular vein, then the cannula tube was removed from the needle and the tip of the cannula tube was inserted 2.5 cm into the jugular vein so as to be fixed near the insertion portion with sutures. The opposite side of the cannula tube was exposed to the outside of the body through the back of the rat, a plug was fitted so as to prevent backflow and the opened skin was sutured. After the completion of the surgery, the rat was returned to a home cage.
The forced swimming test was performed in a pre-administration experiment on the day before the administration of the drug, in an acute administration experiment on the first day of the administration of the drug and in a chronic administration experiment on the seventh day of the administration of the drug. […]

CN(CCSc1cc(F)c(OCC(N)=O)c(F)c1)S(=O)(=O)c1ccccc1 [K-2, {4-[2-(benzenesulfonyl-methyl-amino)-ethylsulfanil]-2,6-difluoro-phenoxy}-acetamide]
Kd (AMPA receptors [1]): 47.9 nM | binding affinity to the AMPA receptors (AMPA receptors [2]): indicated binding affinity

CN(C)C(=O)COc1c(F)cc(SCCN(C)S(=O)(=O)c2ccccc2)cc1F [K-4, {4-[2-(benzenesulfonyl-methyl-amino)-ethylsulfanil]-2,6-difluoro-phenoxy}-N,N-dimethyl-acetamide]
binding affinity to the AMPA receptors (AMPA receptors [2]): indicated binding affinity

CN(C)C(=O)COc1c(F)cc(SCCN(C)S(=O)(=O)c2ccc(F)cc2)cc1F [K-26, {4-[2-(4-fluoro-benzenesulfonyl-methyl-amino)-ethylsulfanil]-2,6-difluoro-phenoxy}-N,N-dimethyl-acetamide]
immobility time (WKY rat): tendency that the immobility time was lower

CCN(CC)C(=O)COc1c(F)cc(SCCN(C)S(=O)(=O)c2ccccc2)cc1F [K-30, {4-[2-(benzenesulfonyl-methyl-amino)-ethylsulfanil]-2,6-difluoro-phenoxy}-N,N-diethyl-acetamide]
immobility time (WKY rat): tendency that the immobility time was lower

CNC(=O)COc1c(F)cc(SCCN(C)S(=O)(=O)c2ccccc2)cc1F [K-32, {4-[2-(benzenesulfonyl-methyl-amino)-ethylsulfanil]-2,6-difluoro-phenoxy}-N-methyl-acetamide]
immobility time (WKY rat): tendency that the immobility time was lower
